Laboratory results taken from article PMC3816012 (Structure (London, England : 1993), 2013).

Target: Qcl (Legionella pneumophila, UniProt O54635)
Experiment: biochemical

Sequence of Qcl (O54635 49-191 limits assumed): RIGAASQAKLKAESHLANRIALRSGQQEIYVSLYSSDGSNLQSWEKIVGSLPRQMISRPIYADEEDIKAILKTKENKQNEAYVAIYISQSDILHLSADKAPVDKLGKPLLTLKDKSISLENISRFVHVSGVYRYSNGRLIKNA

Work on `NC(=O)c1ccc[n+]([C@@H]2O[C@H](COP(=O)(O)OP(=O)(O)OC[C@H]3O[C@@H](n4cnc5c(N)ncnc54)[C@H](O)[C@@H]3O)[C@@H](O)[C@H]2O)c1` [NAD+] yielded a Kd of 400 to 600 µM.
